Patent US12729404B2, “Method and kit for testing drug hypersensitivity reactions caused by sulfonamide derivative-based antiepileptic drug and use of the kit” (CHANG GUNG MEMORIAL HOSPITAL, LINKOU, priority 2020, dated 2026)

Columns and labels:
Settings in all cases: in vivo
HLA-B*13:01 [1] = target: T1, HLA-B*13:01 (Homo sapiens, UniProt P01889, A65T/A93T/A95T/D138N/D201E/D98Y/E176V/E204Q/E69M/E70A/G107R/K202T/L105A/L119I/N104T/N87E/Q94N/R106L/R155S/R169L/R180L/S101N/S121R/S35A/S48T/T118I/V127L/V36M/Y140L/Y91S)
HLA-B*13:01 [2] = target: T1, HLA-B*13:01; remark: listed apart in the source
HLA-B*51:01 or B*51:02 = test system: HLA-B*51:01 or B*51:02

- DHR (%) carrying the allele (HLA-B*13:01 [1]): 100%
- DHR N (allele carriers / patients) (HLA-B*13:01 [1]): 3/3
- Sensitivity (HLA-B*13:01 [1]): 100.00%
- Specificity (HLA-B*13:01 [1]): 88.52%
- Cases N (allele carriers / patients) (HLA-B*13:01 [2]): 5/7
- OR (HLA-B*13:01 [2]): 19.3
- Cases N (allele carriers / patients) (HLA-B*51:01 or B*51:02): 4/7
- OR (HLA-B*51:01 or B*51:02): 8.3
SMILES: NS(=O)(=O)Cc1noc2ccccc12 [zonisamide]
